Assay results reported in paper PMC8624133, “10th Trends in Medical Mycology Held on 8 to 11 October 2021, Aberdeen, Scotland, Organized by the European Confederation of Medical Mycology (ECMM)” (Journal of Fungi, 2021).
In brackets after ≈: the same amount, converted by molar mass. Read-outs that look alike come from different tables or passages of the source.

Tests used:
C. glabrata = assay: EUCAST and CLSI susceptibility, multicenter; assay type: cell-based, Candida glabrata; conditions: Nakaseomyces glabratus, seven laboratories
Procedure: (§1) Methods: We performed a multicenter study to determine the antifugal susceptibility to AmB from AmBisome (provided by Gilead) using both CLSI and EUCAST protocols. We tested this activity against the most relevant clinical fungal species.Representative isolates from different geographical regions were included in the study. Other antifungals were evaluated (fluconazole, itraconazole, voriconazole, posaconazole, caspofungin, micafungin and anidulafungin).

C. parapsilosis = assay: EUCAST and CLSI susceptibility, multicenter; assay type: cell-based, Candida parapsilosis; conditions: Lodderomyces parapsilosis, seven laboratories
Procedure: as §1

Candida albicans = assay: EUCAST and CLSI susceptibility, multicenter; assay type: cell-based; conditions: seven laboratories
Procedure: as §1

[1] = test system: Lomentospora prolificans and Cunninghamella bertholletiae; assay: EUCAST and CLSI susceptibility, multicenter; assay type: cell-based
Procedure: as §1

[2] = test system: other filamentous fungi, including Talaromyces marneffei; assay: EUCAST and CLSI susceptibility, multicenter; assay type: cell-based; conditions: around, read-out: GM MIC, both methods
Procedure: as §1

Aspergillus fumigatus = assay: EUCAST and CLSI susceptibility, multicenter; assay type: cell-based
Procedure: as §1

A. terreus = assay: EUCAST and CLSI susceptibility, multicenter; assay type: cell-based; conditions: Aspergillus terreus
Procedure: as §1

A. nidulans = assay: EUCAST and CLSI susceptibility, multicenter; assay type: cell-based; conditions: Aspergillus nidulans
Procedure: as §1

A. flavus = assay: EUCAST and CLSI susceptibility, multicenter; assay type: cell-based; conditions: Aspergillus flavus
Procedure: as §1

C. tropicalis = assay: EUCAST and CLSI susceptibility, multicenter; assay type: cell-based; conditions: Candida tropicalis, seven laboratories
Procedure: as §1

A. niger = assay: EUCAST and CLSI susceptibility, multicenter; assay type: cell-based; conditions: Aspergillus niger
Procedure: as §1

C. auris = assay: EUCAST and CLSI susceptibility, multicenter; assay type: cell-based, Candida auris; conditions: Candidozyma auris, seven laboratories
Procedure: as §1

[3] = test system: Candida isolates from animals; assay: CLSI M44-A2 disk diffusion; assay type: cell-based, Candida spp.; conditions: 10 µg discs; all 10 isolates
Procedure: Methods: Swab samples were plated on Sabouraud dextrose agar (SDA) with the addition of chloramphenicol. M. pachydermatis strains were identified by conventional laboratory methods and their ability to grow on SDA without lipid supplementation. The identification of Candida isolates was based on their phenotypic characterization and molecular methods using the universal ITS-1 and ITS-4 primers for amplification of the internal transcribed spacer 1 (ITS1), ITS2 regions and the 5.8S ribosomal DNA region followed by sequence-based identification. Susceptibility of Candida isolates was determined as described by the CLSI M44-A2 method using MCZ, CTZ and ITZ discs (10 µg, Neo-Sensitabs, Rosco, Denmark). Because the standard procedure for Candida susceptibility testing cannot be applied to M. pachydermatis, recommended modified protocol was used. The results were interpreted according to manufacturer’s guidelines.

[4] = test system: A. fumigatus isolates (ARAF and azole susceptible); assay: Broth microdilution after EUCAST; assay type: cell-based; conditions: Aspergillus fumigatus; range, 16 ARAF and 4 azole susceptible isolates
Procedure: (§2) Materials & Methods: Olorofim activity has been analyzed at different stages (prior adhesion, 4 h, 12 h, 24 h and 48 h after inoculation) of biofilm formation of clinical ARAF strains (n = 16) as well as azole susceptible A. fumigatus isolates (n = 4) by using an XTT assay. Olorofim was applied in concentrations of a total, a half, a quarter and an eighth of the previously determined minimum inhibitory concentrations (MICs) by broth microdilution method after EUCAST.

A. fumigatus biofilm = assay: Antibiofilm activity, XTT assay; assay type: cell-based, Aspergillus fumigatus
Procedure: as §2

Trichophyton spp. = assay: Agar-based screening method; assay type: cell-based; conditions: 0.5 McF, 5 days, 30 °C
Procedure: Inter-experimental variation was evaluated by testing 10 isolates on three different days. Single-centre validation: After determining the optimal conditions for the agar screening method, 112 molecularly identified Trichophyton spp. clinical isolates were tested.

T. rubrum = conditions: eight susceptible strains; ref Arendrup et al., 2020; cited from earlier work
[5] = test system: dermatophyte standard strains and clinical isolates; assay: Broth microdilution MIC; assay type: cell-based, Trichophyton and Microsporum spp.; conditions: all tested strains
Procedure: Materials & Methods: The minimum inhibitory concentration (MIC) of honokiol was assessed by broth microdilution method against standard strains (Trichophyton rubrum ATCC 28188, Trichophyton mentagrophytes ATCC 9533), and clinical isolates (T. rubrum, T. ajelloi, Microsporum canis and M. gypseum). Evaluation of honokiol effect on ergosterol biosynthesis was assessed by high performance liquid chromatography. Checkerboard microtiter method was used to identify synergistic combinations of honokiol with terbinafine against Trichophyton rubrum ATCC 28188. The combinatorial effect was evaluated by calculating the fractional inhibitory concentration index (FICI).

T. mentagrophytes [6] = assay: EUCAST E.DEF 11.0 MIC; assay type: cell-based; conditions: Trichophyton mentagrophytes
[7] = test system: clinical dermatophyte isolates; assay: Inhibition of dermatophyte biofilm formation; assay type: cell-based
Procedure: Materials and Methods: The study population consisted of 50 dermatophyte isolates that were collected from 2019 to 2020 from patients referred to the two mycology laboratory of Shiraz, Iran. The isolates were identified by ITS gene region sequencing. The suspension (equivalent to 0.5 McFarland) of the isolates was used to evaluate the ability of the isolates to form biofilms and also the effect of itraconazole, terbinafine and griseofulvin at concentrations of 2–32 μg/mL on inhibiting biofilm formation. Two optical microscope and a scanning electron microscope were used to study the microscopic structure of biofilms formed on the surface of 96-well plate wells.

T. indotineae = conditions: eleven susceptible strains; ref Arendrup et al., 2020; cited from earlier work
[8] = test system: T. rubrum and T. interdigitale; conditions: cited from earlier work
[9] = test system: T. rubrum and T. interdigitale isolates; assay: CLSI M38A2 broth microdilution
[10] = test system: Exophiala phaeomuriformis; assay: MIC, CLSI M27-A3; assay type: cell-based; conditions: read-out: MIC values
Procedure: Materials & Methods: The aviation kerosone samples came from an aviation company in Porto Alegre, state of Rio Grande do Sul, Brazil. The fungi isolation was carried out using the modified ASTM D6974-09 Standard. In this procedure, 500 mL kerosene samples were filtered, in triplicate, under aseptic conditions, under vacuum, using a 0.22 μm membrane (Millipore). After filtering, the membranes were deposited in potato dextrose agar culture medium. The plates were incubated in an oven at 30 °C for seven days. After this period, the colonies were isolated in new culture media for purification of the isolates. Molecular identification was performed through the sequencing of ITS DNA regions. The profile of sensitivity to clinical antifungals was assessed following protocols M27-A3 of the Clinical and Laboratory Standards Institute (CLSI).

T. mentagrophytes [11] = assay: EUCAST E.DEF11.0 susceptibility
Procedure: Materials/methods: Samples from patients with clinically suspected dermatophytosis attending the outpatient Dermatology-Venereology Department of “Attikon” hospital during 2010–2019 were collected. Specimens were processed for direct microscopic examination (Blankophor in 10% KOH) and were inoculated on two plates each of Sabouraud’s dextrose agar supplemented with gentamicin + chloramphenicol and the other containing phenol red + cyclohexamide (incubation at 30 °C up to 4 weeks). Recovered isolates were identified to the genus and species level by standard phenotypic methods based on their colonial/microscopic morphology and biochemical properties (hydrolysis of urea) and were stored in 10% glycerol stocks at −70 °C.

dermatophyte strains = assay: Terbinafine modified breakpoint method; assay type: cell-based
Procedure: In vitro sensitivity testing against terbinafine was carried out using a modified breakpoint method according to Yamada et al., (2017) and Ebert et al., (2020).

[12] = test system: clinical Trichophyton spp. isolates; assay: Checkerboard microdilution based on EUCAST; assay type: cell-based; conditions: for MIC: Trichophyton, read-out: geometric mean MIC, drug alone; for FICI of isolates exhibiting synergy / isolates with synergistic interactions: terbinafine + itraconazole
Procedure: Materials & Methods: The combination has been tested against 9 terbinafine-susceptible and 7 terbinafine-resistant clinical Trichophyton spp. isolates from India. In vitro interactions were evaluated by a microdilution checkerboard technique based on the EUCAST reference method for antifungal susceptibility testing. The mode of interaction between terbinafine and itraconazole was determined by the fractional inhibitory concentration index (FICI). The FICI was interpreted as FICI ≤ 0.5 = synergy, FICI > 0.5–4 = no interaction, and FICI > 4.0 = antagonism.

[13] = test system: T. mentagrophytes isolates; conditions: cited from earlier work
[14] = test system: environmental yeasts from a lagoon; assay: organism not typed; assay type: cell-based
CDR1 = assay: Rhodamine 6G (R6G) efflux
[15] = ECMM multinational study, risk factors for CAPA; assay type: in vivo, human; conditions: critically ill COVID-19 patients in ICU, 592 patients
Excerpt: Methods: The European Confederation of Medical Mycology (ECMM) conducted a multinational study including 20 centers from nine different countries to assess epidemiology, diagnosis, risk factors, treatment and outcome of CAPA. CAPA was defined according to ECMM/ISHAM consensus definitions.

[16] = 7 terbinafine-resistant isolates
[17] = 9 terbinafine-susceptible isolates

Compound: C[C@@H]1[C@H](O)[C@@H](C)/C=C/C=C/C=C/C=C/C=C/C=C/C=C/[C@H](O[C@@H]2O[C@H](C)[C@@H](O)[C@H](N)[C@@H]2O)C[C@@H]2O[C@](O)(C[C@@H](O)C[C@@H](O)[C@H](O)CC[C@@H](O)C[C@@H](O)CC(=O)O[C@H]1C)C[C@H](O)[C@H]2C(=O)O [AmB from AmBisome, Amphotericin B]
- MIC (C. glabrata; read-out: GM MIC, CLSI): 0.33 µg/mL (≈ 0.357 µM)
- MIC (C. glabrata; read-out: GM MIC, EUCAST): 0.34 µg/mL (≈ 0.368 µM)
- MIC (C. parapsilosis; read-out: GM MIC, CLSI): 0.38 µg/mL (≈ 0.411 µM)
- MIC (C. parapsilosis; read-out: GM MIC, EUCAST): 0.36 µg/mL (≈ 0.39 µM)
- MIC (Candida albicans; read-out: GM MIC, CLSI): 0.21 µg/mL (≈ 0.227 µM)
- MIC (Candida albicans; read-out: GM MIC, EUCAST): 0.23 µg/mL (≈ 0.249 µM)
- activity, in words [1]: lowest activity
- MIC [2]: 0.2 to 0.5 µg/mL (≈ 0.216 to 0.541 µM)
- MIC (Aspergillus fumigatus; read-out: GM MIC, CLSI): 0.64 µg/mL (≈ 0.693 µM)
- MIC (Aspergillus fumigatus; read-out: GM MIC, EUCAST): 0.65 µg/mL (≈ 0.703 µM)
- MIC (A. terreus; read-out: GM MIC, CLSI): 1.4 µg/mL (≈ 1.52 µM)
- MIC (A. terreus; read-out: GM MIC, EUCAST): 2 µg/mL (≈ 2.16 µM)
- MIC (A. nidulans; read-out: GM MIC, CLSI): 0.9 µg/mL (≈ 0.974 µM)
- MIC (A. nidulans; read-out: GM MIC, EUCAST): 1.7 µg/mL (≈ 1.84 µM)
- MIC (A. flavus; read-out: GM MIC, CLSI): 1.1 µg/mL (≈ 1.19 µM)
- MIC (A. flavus; read-out: GM MIC, EUCAST): 1.7 µg/mL (≈ 1.84 µM)
- MIC (C. tropicalis; read-out: GM MIC, CLSI): 0.31 µg/mL (≈ 0.335 µM)
- MIC (C. tropicalis; read-out: GM MIC, EUCAST): 0.36 µg/mL (≈ 0.39 µM)
- MIC (A. niger; read-out: GM MIC, CLSI): 0.36 µg/mL (≈ 0.39 µM)
- MIC (A. niger; read-out: GM MIC, EUCAST): 0.22 µg/mL (≈ 0.238 µM)
- MIC (C. auris; read-out: GM MIC, CLSI): 0.31 µg/mL (≈ 0.335 µM)
- MIC (C. auris; read-out: GM MIC, EUCAST): 0.46 µg/mL (≈ 0.498 µM)

Compound: Clc1ccccc1C(c1ccccc1)(c1ccccc1)n1ccnc1 [CTZ, clotrimazole]
- susceptibility category [3]: susceptible

Compound: Cc1cc(-c2ccccc2)c(C(=O)C(=O)Nc2ccc(N3CCN(c4ncc(F)cn4)CC3)cc2)n1C [olorofim]
- MIC [4]: 0.008 to 0.03 µg/mL (≈ 0.016 to 0.0602 µM)
- biofilm reduction (A. fumigatus biofilm; added prior to adhesion (t0) and right after adhesion (t4), compared to non-treated control): up to 96%
- effect on mature biofilm (A. fumigatus biofilm; t24 & t48): did not show an effect

Compound: CN(C/C=C/C#CC(C)(C)C)Cc1cccc2ccccc12 [terbinafine]
- optimal agar concentration preventing growth of WT isolates (Trichophyton spp.; for high-level resistant isolates): 0.125 mg/L
- optimal agar concentration preventing growth of WT isolates (Trichophyton spp.; for low-level resistant isolates): 0.01 mg/L
- MIC (T. rubrum): under 0.25 µg/µL
- MIC [5]: 0.03 to 0.06 µg/mL
- MIC (T. mentagrophytes [6]): 0.25 to 8 µg/mL (≈ 0.858 to 27.5 µM)
- IC50 ([7]; inhibition of biofilm formation, read-out: mean concentrations of IC50): 2.42 µg/mL (≈ 8.3 µM)
- samples with IC50 in concentration <2 ([7]; tested at 2–32 μg/mL): 70%
- MIC (T. indotineae): under 0.25 µg/µL
- terbinafine resistance [8]: 1%
- isolates less susceptible by microdilution [9]: 2.44%
- MIC ([9]; Trichophyton interdigitale): 1 to 2 µg/mL (≈ 3.43 to 6.86 µM)
- MIC [10]: 0.0156 µg/mL (≈ 0.0535 µM)
- strains with elevated MICs (T. mentagrophytes [11]; 9/24): 37.5%
- MIC (T. mentagrophytes [11]; Trichophyton mentagrophytes, read-out: MIC of strains with elevated MICs): 0.25 to 8 µg/mL
- in vitro resistance (dermatophyte strains; T. mentagrophytes ITS type VIII (T. indotineae), MIC ≥0.2 µg/mL counts as resistant): In vitro resistance
- MIC (dermatophyte strains; few strains, conspicuous but not resistant): 0.1 µg/mL (≈ 0.343 µM)
- MIC range, drug alone [12, 16]: 2 to 64 µg/mL
- MIC range, drug alone [12, 17]: 0.03125 to 0.5 µg/mL
- MIC [12, 16]: 11.9 µg/mL
- MIC [12, 17]: 0.12 µg/mL
- FICI of isolates exhibiting synergy ([12]; resistant isolates): 0.032 to 0.3125
- isolates with synergistic interactions ([12]; resistant isolates): 4/7
- FICI of isolates exhibiting synergy ([12]; susceptible isolates): 0.3125 to 0.5
- isolates with synergistic interactions ([12]; susceptible isolates): 4/9
- resistant isolates [13]: 30–70%
- isolates classified as resistant-like [14]: 39
- MIC ([14]; read-out: MIC of resistant-like isolates): 4 to 256 µg/mL

Compound: Milbemycin oxim A3
- R6G efflux phenotype (CDR1): mimicked efflux phenotypes of cdr1∆ mutants

Compound: tocilizumab: tocilizumab received by COVID-19 ICU patients
- hazard ratio for CAPA [15]: 2.45
